We go through 19 compounds from patent US8921577B2, “Cholecystokinin receptor ligands” (PNB Vesper Life Sciences Pvt. Ltd., priority 2012, dated 2014).

For one series, the target named is T1, CCKA receptor (Rattus norvegicus, UniProt P30551).
T1 construct: Pancreatic membranes were prepared in a similar way described by Charpentier et al; from tissue; host or cells: rat pancreas membranes
T1 sequence (P30551 1-444): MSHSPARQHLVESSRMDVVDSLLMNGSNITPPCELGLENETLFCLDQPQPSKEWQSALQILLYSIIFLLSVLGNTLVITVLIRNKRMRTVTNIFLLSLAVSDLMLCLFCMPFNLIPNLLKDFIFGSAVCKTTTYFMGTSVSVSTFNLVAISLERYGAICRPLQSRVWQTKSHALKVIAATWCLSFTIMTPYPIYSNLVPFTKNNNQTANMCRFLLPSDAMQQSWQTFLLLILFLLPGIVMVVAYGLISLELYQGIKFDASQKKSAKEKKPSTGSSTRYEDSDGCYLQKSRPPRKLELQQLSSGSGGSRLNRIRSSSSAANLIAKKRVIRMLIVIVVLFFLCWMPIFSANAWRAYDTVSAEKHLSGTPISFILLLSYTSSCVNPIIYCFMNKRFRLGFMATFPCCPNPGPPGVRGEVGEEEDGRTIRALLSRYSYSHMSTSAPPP
In words: [125]I-CCK-8 receptor binding assay, CCKA (rat pancreas membranes). The following applies: for IC50: rat pancreas membranes, 125I-Bolton-Hunter labeled CCK 25 pM, pH 6.5, 2 hrs at RT, read-out: Binding affinity Activity CCK-A. How it is done: (§1) CCKA and CCKB receptor binding assays were performed using guinea pig cerebral cortex (CCKB) and rat pancreas (CCKA). Male guinea pig brain tissues were prepared according to the modified method described by Saita et al, [(1994), Eur. J. Pharmacol., 269, 249-254]. Pancreatic membranes were prepared in a similar way described by Charpentier et al, [(1988), Proc Natl Acad Sci USA, 85, 1968-1972]. Briefly, tissues were homogenized in ice cold sucrose (0.32 M, 25 ml) for 15 strokes at 500 rpm and centrifuged at 13000 rpm for 10 mins. The supernatant was re-centrifuged at 13000 rpm for 20 mins. The resulting pellet was re-dispersed to the required volume of buffer at 500 rpm and stored in aliquots at −70° C.
(§2) Binding was achieved using a radioligand ^125I-Bolton-Hunter labeled CCK, NEN at 25 pM. The samples were incubated {with membranes (0.1 mg/ml)} in 20 mM Hepes, 1 mM EGTA, 5 mM MgCl2, 150 mm NaCl, 0.25 mg/ml bacitracin at pH 6.5 for 2 hrs at RT and then […] by centrifugation at 1100 rpm for 5 minutes. The membrane pellets were washed twice with water and the bound radioactivity was measured in a Packard Cobra Auto-gamma counter (B5005). All binding assays were carried out with L-363, 260 as an internal non-specific standard. Controls (no compound) were also added. All samples were made in duplicate and repeated twice. All compounds were initially screened for percentage inhibition at 10 μm. Samples showing an average inhibition of >35% were diluted to 1 μm and re-screened and if active diluted again.

The next series addresses T2, CCKB receptor (Cavia porcellus, UniProt H0VZC5).
T2 construct: Male guinea pig brain tissues were prepared according to the modified method described by Saita et al; from tissue; host or cells: male guinea pig cerebral cortex membranes
T2 sequence (H0VZC5 1-426): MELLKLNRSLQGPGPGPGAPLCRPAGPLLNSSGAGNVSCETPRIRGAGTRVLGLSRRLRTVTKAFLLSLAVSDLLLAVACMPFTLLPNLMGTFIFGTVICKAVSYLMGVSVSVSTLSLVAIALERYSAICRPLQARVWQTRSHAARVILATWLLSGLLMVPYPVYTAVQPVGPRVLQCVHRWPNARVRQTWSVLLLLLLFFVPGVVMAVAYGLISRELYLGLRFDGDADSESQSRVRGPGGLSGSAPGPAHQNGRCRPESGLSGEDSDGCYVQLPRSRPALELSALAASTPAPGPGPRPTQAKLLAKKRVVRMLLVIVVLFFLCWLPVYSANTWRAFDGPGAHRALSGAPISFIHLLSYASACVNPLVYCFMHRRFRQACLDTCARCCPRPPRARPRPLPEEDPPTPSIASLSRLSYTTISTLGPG
Kind of series: [125]I-CCK-8 receptor binding assay, CCKB (guinea pig cerebral cortex membranes). As to conditions: for IC50: guinea pig cerebral cortex membranes, 125I-Bolton-Hunter labeled CCK 25 pM, pH 6.5, 2 hrs at RT, read-out: Binding affinity Activity CCK-B. The method, then:
as §1, §2

Regarding `C[C@H](c1ccccc1)N1C(=O)C=C(Cl)C1(O)c1ccccc1` (single isomer, unassigned) [Example 10a], the melting point is 162 to 164 °C. In addition, the IC50 on CCKA receptor was above 10 µM. The IC50 at CCKB receptor is above 10 µM.

Turning to `C[C@H](c1ccccc1)N1C(=O)C=C(Cl)C1(O)c1ccccc1` (single isomer, unassigned) [Example 10b], the IC50 at CCKA receptor and at CCKB receptor was above 10 µM in each case.

`O=C1C=C(Cl)C(O)(c2ccccc2)N1C1CC1` (stereo not drawn) [Example 1, 4-Chloro-1-cyclopropyl-5-hydroxy-5-phenyl-1,5-dihydro-pyrrol-2-one]: the IC50 is 2.5 µM on CCKA receptor and above 10 µM on CCKB receptor.

For the compound `Cc1ccc(N2C(=O)C=C(Cl)C2(O)c2ccccc2)cc1C` (stereo not drawn) [Example 2, 4-Chloro-1-(3,4-dimethyl-phenyl)-5-hydroxy-5-phenyl-1,5-dihydro-pyrrol-2-one], the melting point is 168 to 171 °C. Further, the IC50 on CCKA receptor worked out at 2 µM. Further, at CCKB receptor, the IC50 was above 10 µM.

With `CC(C)N1C(=O)C=C(Cl)C1(O)c1ccccc1` (stereo not drawn) [Example 3, 4-Chloro-5-hydroxy-1-isopropyl-5-phenyl-1,5-dihydro-pyrrol-2-one], the IC50 at CCKA receptor and on CCKB receptor was above 10 µM throughout.

`CN1C(=O)C=C(Cl)C1(O)c1ccccc1` (stereo not drawn) [Example 4, 4-Chloro-5-hydroxy-1-methyl-5-phenyl-1,5-dihydro-pyrrol-2-one]: the IC50 at CCKA receptor and on CCKB receptor was above 10 µM in each case.

`O=C1C=C(Cl)C(O)(c2ccccc2)N1CCc1ccccc1` (stereo not drawn) [Example 5, 4-Chloro-5-hydroxy-1-phenethyl-5-phenyl-1,5-dihydro-pyrrol-2-one] had a melting point of 155 to 158 °C. The “CCK antagonist character (in words)” value on CCKA receptor (judgement in words on CCK-A and CCK-B binding) was “potent and mixed CCK antagonist”. Besides, on CCKA receptor, the IC50 was determined as 0.02 µM. For the same compound, the IC50 at CCKB receptor turned out to be 0.02 µM.

With `CCCCCCN1C(=O)C=C(Cl)C1(O)c1ccccc1` (stereo not drawn) [Example 6, 4-Chloro-1-hexyl-5-hydroxy-5-phenyl-1,5-dihydro-pyrrol-2-one], the IC50 on CCKA receptor and at CCKB receptor was above 10 µM throughout.

As for `O=C1C=C(Cl)C(O)(c2ccccc2)N1C1CCCC1` (stereo not drawn) [Example 7, 4-Chloro-1-cyclopentyl-5-hydroxy-5-phenyl-1,5-dihydro-pyrrol-2-one], the results for the IC50 on CCKA receptor and at CCKB receptor were 0.36 µM and 0.84 µM, respectively.

`CC(C)CN1C(=O)C=C(Cl)C1(O)c1ccccc1` (stereo not drawn) [Example 8, 4-Chloro-5-hydroxy-1-isobutyl-5-phenyl-1,5-dihydro-pyrrol-2-one]: the IC50 at CCKA receptor amounted to 4.5 µM; at CCKB receptor, 0.01 µM. Further, on CCKB receptor (judgement in words), the “affinity towards the CCK B receptor (in words)” value is on record as “good affinity”.

Take `O=C1C=C(Cl)C(O)(c2ccccc2)N1Cc1ccccc1` (stereo not drawn) [Example 9, 1-Benzyl-4-chloro-5-hydroxy-5-phenyl-1,5-dihydro-pyrrol-2-one]: the IC50 on CCKA receptor and on CCKB receptor was above 10 µM each time.

For `O=C1C=C(Cl)C(O)(c2ccccc2)N1C1CCCCC1` (stereo not drawn) [Example 11, 4-Chloro-1-cyclohexyl-5-hydroxy-5-phenyl-1,5-dihydro-pyrrol-2-one], the IC50 at CCKA receptor and at CCKB receptor was above 10 µM throughout.

As for `O=C1C=C(Cl)C(O)(c2ccc(Cl)cc2)N1C1CC1` (stereo not drawn) [Example 12, 4-Chloro-5-(4-chloro-phenyl)-1-cyclopropyl-5-hydroxy-1,5-dihydro-pyrrol-2-one], the results for the IC50 at CCKA receptor and on CCKB receptor were 7.5 µM and above 10 µM, respectively.

In the case of `CC(C)N1C(=O)C=C(Cl)C1(O)c1ccc(Cl)cc1` (stereo not drawn) [Example 13, 4-Chloro-5-(4-chloro-phenyl)-5-hydroxy-1-isopropyl-1,5-dihydro-pyrrol-2-one], the IC50 on CCKA receptor and at CCKB receptor was above 10 µM throughout.

For the compound `CN1C(=O)C=C(Cl)C1(O)c1ccc(Cl)cc1` (stereo not drawn) [Example 14, 4-Chloro-5-(4-chloro-phenyl)-5-hydroxy-1-methyl-1,5-dihydro-pyrrol-2-one], the IC50 on CCKA receptor and on CCKB receptor was above 10 µM throughout.

Compound `O=C1C=C(Cl)C(O)(c2ccc(Cl)cc2)N1CCc1ccccc1` (stereo not drawn) [Example 15, 4-Chloro-5-(4-chloro-phenyl)-5-hydroxy-1-phenethyl-1,5-dihydro-pyrrol-2-one] came in with a melting point of 145 to 148 °C. For the same compound, at CCKA receptor, the IC50 was found to be 0.002 µM. In addition, the IC50 on CCKB receptor was found to be 0.0015 µM.

Consider `CCCCCCN1C(=O)C=C(Cl)C1(O)c1ccc(Cl)cc1` (stereo not drawn) [Example 16, 4-Chloro-5-(4-chloro-phenyl)-1-hexyl-5-hydroxy-1,5-dihydro-pyrrol-2-one], for which the IC50 on CCKA receptor and at CCKB receptor was above 10 µM in each case.

For the compound `O=C1C=C(Cl)C(O)(c2ccc(Cl)cc2)N1C1CCCC1` (stereo not drawn) [Example 17, 4-Chloro-5-(4-chloro-phenyl)-1-cyclopentyl-5-hydroxy-1,5-dihydro-pyrrol-2-one], the IC50 at CCKA receptor is 2.5 µM; on CCKB receptor it was above 10 µM.

For `O=C1C=C(Cl)C(O)(c2ccc(Cl)cc2)N1Cc1ccccc1` (stereo not drawn) [Example 19, 1-Benzyl-4-chloro-5-(4-chloro-phenyl)-5-hydroxy-1,5-dihydro-pyrrol-2-one], the melting point was 149 to 152 °C. For the same compound, the IC50 at CCKA receptor turned out to be 2.2 µM. Further, at CCKB receptor, the IC50 is above 10 µM.
